{
  "source": "paper PMC8571282",
  "about": "(Nature Communications, 2021)",
  "key": {"[1]": {"system": "SARS-CoV-2-Nluc (WA1/2020-nano luciferase)", "assay": "microbe, parasite or virus in culture", "assay_type": "cell-based"}, "[2]": {"settings": "female, ferret, in vivo, iv"}, "in vitro [3]": {"assay": "in vitro", "settings": "human, % cell viability"}, "in vitro [4]": {"assay": "in vitro", "settings": "African green monkey"}, "in vitro [5]": {"assay": "in vitro", "settings": "hamster"}, "in vitro [6]": {"assay": "in vitro", "settings": "human"}, "in vitro [7]": {"assay": "in vitro", "settings": "human, 72 h"}, "in vitro [8]": {"assay": "in vitro", "settings": "human, % cell viability", "remark": "listed apart in the source"}, "in vitro [9]": {"assay": "in vitro", "settings": "human, % cell viability, M2 HAE, 72 h"}, "in vitro [10]": {"assay": "in vitro", "settings": "human, % cell viability, M6 HAE, 72 h"}, "in vitro [11]": {"assay": "in vitro", "settings": "female, human, % cell viability, DF2 HAE, 33.333 µM, 72 h"}, "HEp-2 cells": {"system": "HEp-2 cells", "assay": "Cytotoxicity assay (PrestoBlue), HEp-2", "settings": "72 h"}, "HCT-8 cells": {"system": "HCT-8 cells", "assay": "Cytotoxicity assay (PrestoBlue), HCT-8", "settings": "HCT-8, 72 h"}, "“F2” primary HAE cells": {"system": "“F2” primary HAE cells", "assay": "Cytotoxicity assay (PrestoBlue), “F2” HAE", "settings": "72 h; for % cell viability: F2 HAE"}, "“F3” primary HAE cells": {"system": "“F3” primary HAE cells", "assay": "Cytotoxicity assay (PrestoBlue), “F3” HAE", "settings": "F3 HAE, 72 h"}},
  "note": "“And” between values parts separate entries of the source, which are not always exact repeats. Equal entries are not always repeated.",
  "data": [
    {"molecule": "CCC(CC)COC(=O)[C@H](C)N[P@](=O)(OC[C@H]1O[C@@](C#N)(c2ccc3c(N)ncnn23)[C@H](O)[C@@H]1O)Oc1ccccc1", "note": "[remdesivir]", "values": [
      {"measurement": "A549-hACE2 SARS-CoV-2 Nluc (EC50 determination), normalized signal", "setting": "[1]; Conc 0.005 µM, replicate values of the experiments", "result": "78.71 and 115.29 and 114.83 and 141.39 and 91.95 and 93.98 and 92.17 and 82.76 and 114.48 and 78.49 and 78.52 and 118.54"},
      {"measurement": "EC50", "setting": "[1]; Severe acute respiratory syndrome coronavirus 2, WA1/2020-nano luciferase, A549-ACE2, mean ± SD", "result": 0.08, "unit": "µM"},
      {"measurement": "lung GS-443902", "setting": "[2]", "result": 1.28, "unit": "nmol/g"},
      {"measurement": "lung total nuc", "setting": "[2]", "result": 2.96, "unit": "nmol/g"},
      {"measurement": "viability at […]", "setting": "in vitro [3]", "result": 89, "unit": "%"},
      {"measurement": "viability at 1.235 µM", "setting": "in vitro [3]; HEp-2, 1.235 µM, 72 h", "result": 83, "unit": "%"},
      {"measurement": "viability at 33.333 µM", "setting": "in vitro [3]; HEp-2, 33.333 µM, 72 h", "result": 64, "unit": "%"},
      {"measurement": "viability at 100 µM", "setting": "in vitro [3]; HEp-2, 100 µM, 72 h", "result": 31, "unit": "%"},
      {"measurement": "CC50", "setting": "in vitro [4]", "result": "> 100", "unit": "µM"},
      {"measurement": "viability at […]", "setting": "in vitro [4]; % cell viability", "result": 79, "unit": "%"},
      {"measurement": "viability at 3.704 µM", "setting": "in vitro [4]; % cell viability, VeroE6, 3.704 µM, 72 h", "result": 92, "unit": "%"},
      {"measurement": "CC50", "setting": "in vitro [5]", "result": "> 100", "unit": "µM"},
      {"measurement": "viability at 1.235 µM", "setting": "in vitro [5]; % cell viability, BHK-21, 1.235 µM, 72 h", "result": 87, "unit": "%"},
      {"measurement": "viability at 3.704 µM", "setting": "in vitro [5]; % cell viability, BHK-21, 3.704 µM, 72 h", "result": 93, "unit": "%"},
      {"measurement": "viability at 0.046 µM", "setting": "in vitro [6]; % cell viability, HCT-8, 0.046 µM, 72 h", "result": 76, "unit": "%"},
      {"measurement": "viability at 33.333 µM", "setting": "in vitro [6]; % cell viability, HCT-8, 33.333 µM, 72 h", "result": 51, "unit": "%"},
      {"measurement": "viability at 100 µM", "setting": "in vitro [6]; % cell viability, HCT-8, 100 µM, 72 h", "result": 15, "unit": "%"},
      {"measurement": "CC50", "setting": "in vitro [6]; CC50, HCT-8, 72 h", "result": 36.4, "unit": "µM"},
      {"measurement": "viability at 0.046 µM", "setting": "in vitro [7]; female, % cell viability, F2 HAE, 0.046 µM", "result": 81, "unit": "%"},
      {"measurement": "viability at 33.333 µM", "setting": "in vitro [7]; female, % cell viability, F2 HAE, 33.333 µM", "result": 72, "unit": "%"},
      {"measurement": "viability at 100 µM", "setting": "in vitro [7]; % cell viability, F2 HAE, 100 µM", "result": 46, "unit": "%"},
      {"measurement": "CC50", "setting": "in vitro [7]; CC50, “F2” HAE", "result": 85.5, "unit": "µM"},
      {"measurement": "viability at […]", "setting": "in vitro [8]; female", "result": 91, "unit": "%"},
      {"measurement": "viability at 0.046 µM", "setting": "in vitro [8]; female, F3 HAE, 0.046 µM, 72 h", "result": 75, "unit": "%"},
      {"measurement": "viability at 33.333 µM", "setting": "in vitro [8]; female, F3 HAE, 33.333 µM, 72 h", "result": 84, "unit": "%"},
      {"measurement": "viability at 100 µM", "setting": "in vitro [8]; F3 HAE, 100 µM, 72 h", "result": 51, "unit": "%"},
      {"measurement": "viability at 100 µM", "setting": "in vitro [9]; 100 µM", "result": 56, "unit": "%"},
      {"measurement": "viability at 0.046 µM", "setting": "in vitro [9]; male, 0.046 µM", "result": 85, "unit": "%"},
      {"measurement": "viability at 100 µM", "setting": "in vitro [10]; 100 µM", "result": 89, "unit": "%"},
      {"measurement": "viability at 0.046 µM", "setting": "in vitro [10]; male, 0.046 µM", "result": 90, "unit": "%"},
      {"measurement": "viability at 1.235 µM", "setting": "in vitro [10]; male, 1.235 µM", "result": 87, "unit": "%"},
      {"measurement": "viability at 33.333 µM", "setting": "in vitro [10]; male, 33.333 µM", "result": 96, "unit": "%"},
      {"measurement": "viability at 33.333 µM", "setting": "in vitro [11]", "result": 86, "unit": "%"},
      {"measurement": "% cell viability", "setting": "HEp-2 cells; HEp-2, 0.046 µM, 0.046 µM", "result": "45% and 47% and 73%"},
      {"measurement": "% cell viability", "setting": "HEp-2 cells; HEp-2, 1.235 µM, 1.235 µM", "result": "86% and 94%"},
      {"measurement": "% cell viability", "setting": "HEp-2 cells; HEp-2, 3.704 µM, 3.704 µM", "result": 96, "unit": "%"},
      {"measurement": "% cell viability", "setting": "HEp-2 cells; HEp-2, 33.333 µM, 33.333 µM", "result": "51% and 66%"},
      {"measurement": "% cell viability", "setting": "HEp-2 cells; HEp-2, 100 µM, 100 µM", "result": 24, "unit": "%"},
      {"measurement": "CC50", "setting": "HCT-8 cells", "result": 36.4, "unit": "µM"},
      {"measurement": "% cell viability", "setting": "“F2” primary HAE cells; 0.046 µM", "result": "85% and 82%"},
      {"measurement": "% cell viability", "setting": "“F2” primary HAE cells; 33.333 µM", "result": "77% and 71%"},
      {"measurement": "% cell viability", "setting": "“F2” primary HAE cells; 100 µM", "result": 47, "unit": "%"},
      {"measurement": "CC50", "setting": "“F2” primary HAE cells; “F2” HAE", "result": 85.5, "unit": "µM"},
      {"measurement": "% cell viability", "setting": "“F3” primary HAE cells; 0.046 µM", "result": "76% and 79%"},
      {"measurement": "% cell viability", "setting": "“F3” primary HAE cells; 33.333 µM", "result": "88% and 89%"},
      {"measurement": "% cell viability", "setting": "“F3” primary HAE cells; 100 µM", "result": "52% and 54%"}
    ]}
  ]
}
